Data reported in patent US20260193163A1, “CRYSTAL FORM OF L-ARGININE (S)-2-(1-ACETOXY-N-PENTYL)BENZOATE, AND PREPARATION METHOD THEREFOR AND USE THEREOF” (JIANGSU KANION PHARMACEUTICAL CO., LTD., priority 2023, published 2026).

Columns and labels:
[1] = Intrinsic dissolution rate in SGF or FeSSIF; type: physicochemical; settings: 37° C., 100 rpm, 5-120 min, HPLC
Protocol: Samples of crystal form I (25 mg each) were weighed, placed into intrinsic dissolution rate metal modules, and maintained at a pressure of 20 pounds for 30 s and then placed in 20 mL of SGF (Simulated Gastric Fluid) or FeSSIF (Fed-State Simulated Intestinal Fluid) physiological medium, respectively. The medium was maintained at 37° C. and a rotation speed at 100 rpm throughout the process. Then, at 5, 15, 30, 45, 60, 90, and 120 min, respectively, a 0.5 mL aliquot of the solution was taken and filtered through a 0.22 μm aqueous microfiltration membrane. And the volume was replenished with 0.5 mL of the corresponding physiological medium. The concentration was determined according to an HPLC content assay method.

[2] = Crystal form stability study (PXRD, DSC, TGA on day 0, 5, 10); type: physicochemical; settings: 10 days
Protocol: Samples of crystal form I were subjected to physical stability tests under different storage conditions. The storage conditions were respectively: • (1) High temperature: 60° C. • (2) High humidity: RH 90%±5% • (3) Under light exposure: 4500 lx±500 lx, with the total illumination from the light source reaching 1.2×10^6 lux·hr PXRD, DSC, and TGA tests were performed on the samples on day 0, day 5, and day 10, respectively, to investigate the stability of the samples under high temperature, high humidity, and light exposure conditions. The experimental results are detailed in FIG. 8 to FIG. 16 of the description.

CCCC[C@H](OC(C)=O)c1ccccc1C(=O)O [crystal form I, L-arginine (S)-2-(1-acetoxy-n-pentyl)benzoate]
Dissolution rate compared with the solid obtained in Comparative Example 1 [1]: significantly higher
Change of powder diffraction pattern, DSC trace and TGA trace (physical stability, crystal form transformation) ([2]; high humidity RH 90%±5%): no significant difference
Change of powder diffraction pattern, DSC trace and TGA trace (physical stability, crystal form transformation) ([2]; high temperature 60° C.): no significant difference
Change of powder diffraction pattern, DSC trace and TGA trace (physical stability, crystal form transformation) ([2]; light exposure 4500 lx±500 lx, total illumination 1.2×10^6 lux·hr): no significant difference
